Assays:
[1] = test system: metastatic uveal melanoma
Description: In the experimental examples below, standard techniques of therapeutical agent administration were used. […] Artesunate was provided by Sanofi Synthelabo, France.
The clinical course of the disease and the treatment modalities are depicted in detail in Figure 1. […] A chemotherapy with Dacarbazin (DTIC) was initiated at a concentration of 850 mg per m^2 body surface.
The clinical course of the disease and the treatment modalities are depicted in detail in Figure 2. […] A chemotherapy with DTIC at a concentration of 850 mg per m^2 body surface was initiated. […] In addition, the patient received an iron medication (three times daily ferroglycine sulfate equivalent to 40 mg Fe^2+) to potentially increase the efficacy of ART.

[2] = test system: nucleic acid synthesis; conditions: cited from earlier work
[3] = test system: P388 leukemia; conditions: NCI report on NSC 369397; cited from earlier work
[4] = test system: cell line panels consisting of 60 lines; conditions: 60 cell lines in nine disease-related subpanels; cited from earlier work
[5] = test system: tumor; conditions: combination treatment with ferrous sulfate, three dog studies; cited from earlier work
[6] = test system: uveal melanoma; conditions: largest prospective trial, metastatic uveal melanoma; cited from earlier work
[7] = within the group of artemisinin analogs; cited from earlier work

SMILES: C[C@H]1[C@H](OC(=O)CCC(=O)O)O[C@@H]2O[C@@]3(C)CC[C@H]4[C@H](C)CC[C@@H]1[C@@]24OO3 [ART, (3R,5aS,6R,8aS,9R,10S,12R,12aR)-Decahydro-3,6,9-trimethyl-3,12-epoxy-12H-pyrano[4,3-j]1,2-benzodioxepin-10-ol,hydrogen succinate]
- side effects throughout the combination therapy ([1]; human, in vivo): no additional side effects
- toxicity of ART-treatment ([1]; human, in vivo): without measurable toxicity
- survival after start of the ART/Fotemustine therapy ([1]; patient 1): 11 months
- response at first staging ([1]; patient 1, ART 2 times daily 50 mg p.o. in combination with Fotemustine, three months after initiation): mixed response
- time to death after entry into stage IV according to AJCC ([1]; patient 1, DTIC, then Fotemustine, then ART plus chemotherapy): 23 months
- survival (still alive) after initiation of ART/DTIC-therapy ([1]; patient 2): ≥ 37 months
- response ([1]; patient 2, 50 mg ART twice daily p.o. with DTIC and ferroglycine sulfate, after 21 courses of DTIC, the last 11 with ART): objective response
- survival (still alive) after first diagnosis of stage IV uveal melanoma ([1]; patient 2, ART added to Dacarbazin): ≥ 37 months
- activity relative to artemisinin in ability to inhibit nucleic acid synthesis [2]: 100 times

SMILES: C[C@@H]1CC[C@H]2[C@@H](C)C(=O)O[C@@H]3O[C@@]4(C)CC[C@@H]1[C@]32OO4 [Artemisinin]
- activity against P388 leukemia [3]: inactive
- anticancer activity [4]: very little anticancer activity
- tumor size [5]: reduction of tumor size

SMILES: CCOP(=O)(OCC)C(C)NC(=O)N(CCCl)N=O (stereo not drawn) [Fotemustine]
- complete responses (CR) [6]: one CR in 48 patients

SMILES: CCO[C@H]1O[C@@H]2O[C@@]3(C)CC[C@H]4[C@H](C)CC[C@@H]([C@H]1C)[C@@]24OO3 [arteether]
- activity relative to artemisinin in ability to inhibit nucleic acid synthesis [2]: 100 times

SMILES: C[C@H]1[C@@H](OCc2ccc(C(=O)O)cc2)O[C@@H]2O[C@@]3(C)CC[C@H]4[C@H](C)CC[C@@H]1[C@@]24OO3 [artelinic acid]
- activity relative to artemisinin in ability to inhibit nucleic acid synthesis [2]: 100 times
- stability [7]: most stable
- water solubility [7]: most water soluble

SMILES: CCCOC(=O)OC1O[C@@H]2O[C@@]3(C)CC[C@H]4[C@H](C)CC[C@@H]([C@H]1C)[C@@]24OO3 (stereo partly drawn) [propylcarbonate dihydroartemisinin]
- activity relative to artemisinin in ability to inhibit nucleic acid synthesis [2]: 100 times

— EP1658844A1, “Use of artemisinin derivatives in the manufacture of a medicament for the treatment of melanoma” (Schuler, Gerold, priority 2004, dated 2006)
